Results from patent publication US20250090541A1, “Methods for Treating Neurodegenerative Disorders” (Praetego Inc, priority 2022, published 2025).

Assay: Oral pharmacokinetics and tissue distribution of PTG-630 (blood brain barrier penetration)
Format: in vivo, Sprague-Dawley rats
Design: AUC(0-t) / AUC(0-inf): concentration or dose not given beside the values
Settings: for concentration at 0.5 h: 0.50 h
Excerpt: This was a study in male Sprague-Dawley rats. The primary objective was to assess the IV and PO pharmacokinetics of PTG-630. The secondary objectives were to assess tissue distribution after oral administration of PTG-630 (free base form) and the renal excretion, hepatic extraction efficiency and bioavailability of PTG-630.
Twelve non-cannulated animals were arbitrarily assigned to groups upon arrival and housed together throughout the experiment. The animals were acclimated to their designated housing for at least 24 hours before the first day of dosing. PTG-630 was formulated in 0.5% methyl cellulose and 0.1% Tween 20 in water for injection and administered to animals by mouth (PO) with blood and tissue samples collected at predetermined time points. Right thigh muscle, liver, brain, right sciatic nerve, and right kidney were collected at the terminal time points. These samples were collected and placed into individually labeled tubes and frozen at −20° C. Tissues samples were analyzed for concentration of PTG-630.

[1] = male, Sprague-Dawley, rat, brain, po
[2] = male, Sprague-Dawley, rat, kidney, po
[3] = male, Sprague-Dawley, rat, liver, po
[4] = male, Sprague-Dawley, rat, muscle, po
[5] = male, Sprague-Dawley, rat, plasma, po
[6] = male, Sprague-Dawley, rat, sciatic nerve, po
[7] = male, Sprague-Dawley, rat, Brain, PO, mean
[8] = male, Sprague-Dawley, rat, Kidney, PO, mean
[9] = male, Sprague-Dawley, rat, Liver, PO, mean
[10] = male, Sprague-Dawley, rat, Muscle, PO, mean
[11] = male, Sprague-Dawley, rat, Plasma, PO, mean
[12] = male, Sprague-Dawley, rat, Sciatic Nerve, PO, mean

Compound: Cc1ncc(CN2CCOCC2)c(-c2ncc[nH]2)c1O [PTG-630, 4-(1H-imidazol-2-yl)-2-methyl-5-(morpholinomethyl)pyridin-3-ol]
- Concentration (Brain, 24 h, PO, mean): BLQ
- % Extrap (Brain, PO): 23.7%
- Concentration (Kidney, 24 h, PO, mean): BLQ
- % Extrap (Kidney, PO): 14.0%
- Concentration (Liver, 24 h, PO, mean): BLQ
- % Extrap (Liver, PO): 5.72%
- Concentration (Muscle, 24 h, PO, mean): BLQ
- % Extrap (Muscle, PO): 30.7%
- % Extrap (Plasma, PO): 1.13%
- Concentration (Sciatic Nerve, 24 h, PO, mean): BLQ
- detectability in tissues 24 hours post dose (any tissue except plasma, 24 hours post dose): not detectable
- Half-life in brain relative to plasma (brain vs plasma): 1.3 times
- quantifiability in tested tissues (liver, kidney, brain, sciatic nerve, muscle): quantifiable in all tested tissues
- AUC(0-inf) [1]: 6720 ng·h/mL
- AUC(0-t) [1]: 5130 ng·h/mL
- Cmax [1]: 1990 ng/mL
- Tmax [1]: 1 h
- half-life [1]: 4.53 h
- AUC(0-inf) [2]: 11400 ng·h/mL
- AUC(0-t) [2]: 9770 ng·h/mL
- Cmax [2]: 3880 ng/mL
- Tmax [2]: 1 h
- AUC(0-inf) [3]: 22000 ng·h/mL
- AUC(0-t) [3]: 20700 ng·h/mL
- Cmax [3]: 6350 ng/mL
- Tmax [3]: 1 h
- AUC(0-inf) [4]: 3820 ng·h/mL
- AUC(0-t) [4]: 2650 ng·h/mL
- Cmax [4]: 1030 ng/mL
- Tmax [4]: 1 h
- AUC(0-inf) [5]: 8700 ng·h/mL
- AUC(0-t) [5]: 8600 ng·h/mL
- Cmax [5]: 1160 ng/mL
- Tmax [5]: 1 h
- AUC(0-t) [6]: 6550 ng·h/mL
- Cmax [6]: 1830 ng/mL
- Tmax [6]: 1 h
- Kp (male, Sprague-Dawley, rat, selected tissues vs plasma, po, read-out: exposure in selected tissues relative to exposure in plasma): 3 to 5
- concentration at 0.5 h [7]: 1430 ng/mL
- concentration at 1 h [7]: 1990 ng/mL
- concentration at 2 h [7]: 450 ng/mL
- concentration at 4 h [7]: 1000 ng/mL
- concentration at 6 h [7]: 244 ng/mL
- concentration at 0.5 h [8]: 2230 ng/mL
- concentration at 1 h [8]: 3880 ng/mL
- concentration at 2 h [8]: 1510 ng/mL
- concentration at 4 h [8]: 1520 ng/mL
- concentration at 6 h [8]: 466 ng/mL
- concentration at 0.5 h [9]: 5720 ng/mL
- concentration at 1 h [9]: 6350 ng/mL
- concentration at 2 h [9]: 5080 ng/mL
- concentration at 4 h [9]: 2420 ng/mL
- concentration at 6 h [9]: 647 ng/mL
- concentration at 0.5 h [10]: 775 ng/mL
- concentration at 1 h [10]: 1030 ng/mL
- concentration at 2 h [10]: 290 ng/mL
- concentration at 4 h [10]: 401 ng/mL
- concentration at 6 h [10]: 245 ng/mL
- concentration at 0.5 h [11]: 930 ng/mL
- concentration at 1 h [11]: 1160 ng/mL
- concentration at 2 h [11]: 274 ng/mL
- concentration at 4 h [11]: 794 ng/mL
- concentration at 6 h [11]: 510 ng/mL
- concentration at 24 h (male, Sprague-Dawley, rat, Plasma, 24 h, PO, mean): 18.4 ng/mL
- concentration at 0.5 h [12]: 1660 ng/mL
- concentration at 1 h [12]: 1830 ng/mL
- concentration at 2 h [12]: 510 ng/mL
- concentration at 4 h [12]: 989 ng/mL
- concentration at 6 h [12]: 690 ng/mL
- Tmax (male, Sprague-Dawley, rat, tissues, comparable to plasma, PO): 1 h
